The results in this text go back to patent US20210393745A1, “OLIGOMER EXTENDED INSULIN-FC CONJUGATES AND THEIR MEDICAL USE” (Novo Nordisk A/S, priority 2018, published 2021).

The nature of data set [1]: Stability study: purity by anionic exchange chromatography. The data set is classed as physicochemical. The following applies: purity %(5° C.) − purity %(30° C.), 30 μM, pH 7.4. The procedure:
(§1) Samples for stability studies were prepared by weighing out 8-10 mg freeze-dried material. The freeze-dried material was solubilized to […] in a premade solution A (5 mM phophate (pH 7.4), 140 mM NaCl and 70 ppm polysorbate 20). Protein concentration was determined using absorbance at 280 nm using a Nanodrop 2000 (Thermo Fisher Scientific Inc.) and theoretical extinction coefficients. Dilution into solution A was done to reach a final concentration of 30 μM.
Anionic exchange chromatography was performed on an Ultra-Performance Liquid Chromatography system (Waters Acquity H-Class) equipped with a fluorescence detector (Waters Acquity FLR Detector). A Bio SAX column with dimensions 50×4.6 mm from Agilent, kept at 30° C., was used in gradient elution mode. Mobile phase A was 5/95 (v/v), acetonitrile/water with 25 mM BIS-TRIS propane, pH 7.3 and mobile phase B was 5/95 (v/v), acetonitrile/water with 25 mM BIS-TRIS propane and 350 mM NaCl, pH 7.3. Injection volume was 3 μL. The flow rate was kept at 0.5 mL/min with a linear gradient from 10 to 47% B in 3 min followed by a linear gradient from 47 to 55% B in 30 min. Peaks were detected with an emission wavelength of […] and data processing is performed with the EMPOWER 3 software from Waters. Samples were analysed for purity as percent API in relation to all other species.
Reported as Δ purity %=purity %(5° C.)−purity % (30° C.).
Stability of Fc-insulin analogues was evaluated by comparing purity from anion exchange chromatography and formation of high molecular weight products (HMWP) at 5° C. (control) versus 30° C. (heat induced stress). […] The amount of HMWP was decreased by 0.5-2% in the stressed sample versus the control, i.e. some aggregated material has disassociated during incubation at 30° C.

A short description of data set [2]: Stability study: high-molecular weight products by native size-exclusion chromatography. In kind it is physicochemical. The following applies: HMWP %(5° C.) − HMWP %(30° C.), 30 μM, pH 7.4. The procedure: as §1
Native size-exclusion chromatography was performed on a High-Performance Liquid Chromatography system (Waters Alliance) equipped with a UV/Vis detector (Waters 2489 UV/Vis detector). A Waters XBridge BEH 200 Å, 3.5 μm column with dimensions 7.8×300 mm, kept at 30° C., was used. The mobile phase was 50 mM sodium phosphate (pH 7.0), 50 mM NaCl, 5% isopropyl alcohol (v/v). Injection volume was 5 μL. The flow rate was kept at 0.5 mL/min. Peaks were detected using absorbance at 215 nm and data processing is performed with the EMPOWER 3 software from Waters. Samples were analysed for high molecular weight products (HMWP) by relating the total integral of material eluting before main peak with main monomeric peak. In all chromatograms, full baseline separation was observed. […]
Stability of Fc-insulin analogues was evaluated by comparing purity from anion exchange chromatography and formation of high molecular weight products (HMWP) at 5° C. […]

The test system of data set [3] is normal Sprague-Dawley rats. Nature of the data set: In vivo PD, blood glucose lowering in normal rats. On the set-up: species or system Sprague-Dawley rat. The settings on record: s.c. 30 nmol/kg, baseline corrected BG up to 10 days, difference from vehicle, mean. The procedure: (§2) Insulin-Fc conjugates were tested in vivo by subcutaneous (s.c.) administration to normal and streptozotocin (STZ) treated male Sprague-Dawley (SD) rats.
(§3) The rats were dosed s.c. in the neck region with a dose of 30 nmol/kg of the insulin-Fc conjugates. Blood samples for blood glucose and plasma insulin analysis were collected from the tongue vein up to 10 days post dosing. The insulin-Fc concentrations were measured by immuno-assay (LLOQ=1000 pM) and the resulting half-life values after s.c. dosing are shown in Table 4. The PK profiles for normal rats are shown in FIG. 3 and for streptozotocin treated rats in FIG. 6. Blood glucose (BG) was measured using Biosen S Line (EKF) and the BG and baseline corrected BG profiles for normal rats are shown in FIGS. 1 and 2 and for streptozotocin treated rats in FIGS. 4 and 5 respectively.

The target of data set [4] is T1, membrane-associated human IGF-1R (Homo sapiens, UniProt P08069).
T1 construct: expressed in transfected cells; host or cells: BHK cells, pZem219B vector, plasma membrane preparation
Nature of the data set: IGF-1 receptor affinity on membrane associated receptors (SPA). The settings on record: membrane-associated IGF-1R, relative to human insulin. The data set is classed as binding. The protocol:
(§4) Membrane-associated human IR and IGF-1R are purified from BHK cells stably transfected with the pZem219B vector containing either the human IR-A, IR-B or IGF-IR insert. BHK cells are harvested and homogenized in ice-cold buffer (25 mM HEPES pH 7.4, 25 mM CaCl2 and 1 mM MgCl2, 250 mg/L bacitracin, 0.1 mM Pefablock). The homogenates are layered on a 41% (w/v) sucrose cushion and centrifuged for 75 minutes at 95000 g at 4° C. The plasma membranes are collected, diluted 1:5 with buffer (as above) and centrifuged again for 45 minutes at 40000 g at 4° C. The pellets are resuspended in a minimal volume of buffer and drawn through a needle (size 23) three times before storage at −80° C. until usage. The relative binding affinity for either of the membrane-associated human IR-A, IR-B or IGF-1R is determined by competition binding in a SPA setup. IR assays are performed in duplicate in 96-well OptiPlates (Perkin-Elmer Life Sciences). Membrane protein is incubated with gentle agitation for 150 minutes at 25° C. with 50 pM [^125IA14Y]-human insulin in a total volume of […] assay buffer (50 mM HEPES, 150 mM NaCl, 5 mM MgSO4, 0.01% Triton X-100, 0.1% (w/v) HSA (Sigma A1887), Complete EDTA-free protease inhibitors), 50 μg of wheat germ agglutinate (WGA)-coated PVT microspheres (GE Healthcare) and increasing concentrations of ligand. Assays are terminated by centrifugation of the plate at 2000 rpm for 2 minutes and bound radioactivity quantified by counting on a TopCount NXT (Perkin-Elmer Life Sciences).
(§5) IGF-1R assays are conducted essentially as for the IR binding assays except that membrane-associated IGF-1R and 50 pM [^125I-Tyr31]-human IGF-1 were employed.

Data set [5] concerns streptozotocin treated Sprague-Dawley rats. Nature of the data set: In vivo PD, blood glucose lowering in streptozotocin treated rats. Further details: species or system Sprague-Dawley rat. The settings on record: s.c. 30 nmol/kg, baseline corrected BG up to 10 days, difference from vehicle, mean. The procedure:
as §2, §3

Data set [6] deals with T2, membrane-associated human IR-B (Homo sapiens, UniProt P06213).
T2 construct: expressed in transfected cells; host or cells: BHK cells, pZem219B vector, plasma membrane preparation
Nature of the data set: Insulin receptor affinity on membrane associated receptors (SPA), IR-B. In kind it is binding. The settings on record: relative to human insulin. The procedure:
as §4, §5

A short description of data set [7]: In vivo PK after s.c. dosing, normal rats. On the set-up: species or system Sprague-Dawley rat. The settings on record: s.c. 30 nmol/kg, mean value. The procedure: as §2, §3
In data set [8] the target is T3, membrane-associated human IR-A (Homo sapiens, UniProt P06213).
T3 construct: expressed in transfected cells; host or cells: BHK cells, pZem219B vector, plasma membrane preparation
Nature of the data set: Insulin receptor affinity on membrane associated receptors (SPA), IR-A. The data set is classed as binding. The following applies: relative to human insulin. The protocol:
as §4, §5

T2 sequence (P06213 28-758 limits assumed): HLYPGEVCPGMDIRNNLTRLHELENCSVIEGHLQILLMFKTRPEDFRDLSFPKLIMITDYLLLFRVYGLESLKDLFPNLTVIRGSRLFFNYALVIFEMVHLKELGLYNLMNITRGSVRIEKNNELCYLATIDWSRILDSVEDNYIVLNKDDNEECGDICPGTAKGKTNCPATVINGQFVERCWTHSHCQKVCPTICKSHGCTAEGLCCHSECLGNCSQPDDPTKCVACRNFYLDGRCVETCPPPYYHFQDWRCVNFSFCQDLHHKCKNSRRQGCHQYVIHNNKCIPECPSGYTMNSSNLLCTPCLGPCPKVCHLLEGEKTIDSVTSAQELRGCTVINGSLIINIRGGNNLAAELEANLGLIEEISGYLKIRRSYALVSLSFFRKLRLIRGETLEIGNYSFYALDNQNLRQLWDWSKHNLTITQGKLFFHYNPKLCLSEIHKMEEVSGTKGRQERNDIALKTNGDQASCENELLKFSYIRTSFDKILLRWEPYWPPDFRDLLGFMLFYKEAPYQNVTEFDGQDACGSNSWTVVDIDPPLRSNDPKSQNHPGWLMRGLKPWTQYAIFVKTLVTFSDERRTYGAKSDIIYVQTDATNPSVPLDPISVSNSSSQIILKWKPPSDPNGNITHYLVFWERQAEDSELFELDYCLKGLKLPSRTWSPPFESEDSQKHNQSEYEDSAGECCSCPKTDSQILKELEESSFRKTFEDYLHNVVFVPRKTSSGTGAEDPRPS
T2 sequence (P06213 763-1382 partner limits assumed): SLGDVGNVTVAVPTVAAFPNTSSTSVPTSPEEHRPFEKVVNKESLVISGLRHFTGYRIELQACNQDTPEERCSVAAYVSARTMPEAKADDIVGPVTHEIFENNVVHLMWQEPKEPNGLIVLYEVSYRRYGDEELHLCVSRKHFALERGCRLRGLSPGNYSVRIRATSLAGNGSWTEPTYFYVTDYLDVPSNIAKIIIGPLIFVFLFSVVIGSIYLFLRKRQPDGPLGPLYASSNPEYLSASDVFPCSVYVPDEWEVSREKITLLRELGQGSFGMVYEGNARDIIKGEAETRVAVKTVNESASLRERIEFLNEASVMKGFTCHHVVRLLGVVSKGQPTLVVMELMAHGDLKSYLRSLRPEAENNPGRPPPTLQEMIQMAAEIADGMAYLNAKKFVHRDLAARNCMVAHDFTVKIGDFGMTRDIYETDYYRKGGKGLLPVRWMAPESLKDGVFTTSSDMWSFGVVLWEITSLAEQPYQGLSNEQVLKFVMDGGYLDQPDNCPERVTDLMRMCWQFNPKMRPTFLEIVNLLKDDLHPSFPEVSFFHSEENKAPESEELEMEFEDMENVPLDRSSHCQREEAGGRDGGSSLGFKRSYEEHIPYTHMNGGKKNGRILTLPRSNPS
T3 sequence (P06213 28-1370 isoform P06213-2 limits assumed): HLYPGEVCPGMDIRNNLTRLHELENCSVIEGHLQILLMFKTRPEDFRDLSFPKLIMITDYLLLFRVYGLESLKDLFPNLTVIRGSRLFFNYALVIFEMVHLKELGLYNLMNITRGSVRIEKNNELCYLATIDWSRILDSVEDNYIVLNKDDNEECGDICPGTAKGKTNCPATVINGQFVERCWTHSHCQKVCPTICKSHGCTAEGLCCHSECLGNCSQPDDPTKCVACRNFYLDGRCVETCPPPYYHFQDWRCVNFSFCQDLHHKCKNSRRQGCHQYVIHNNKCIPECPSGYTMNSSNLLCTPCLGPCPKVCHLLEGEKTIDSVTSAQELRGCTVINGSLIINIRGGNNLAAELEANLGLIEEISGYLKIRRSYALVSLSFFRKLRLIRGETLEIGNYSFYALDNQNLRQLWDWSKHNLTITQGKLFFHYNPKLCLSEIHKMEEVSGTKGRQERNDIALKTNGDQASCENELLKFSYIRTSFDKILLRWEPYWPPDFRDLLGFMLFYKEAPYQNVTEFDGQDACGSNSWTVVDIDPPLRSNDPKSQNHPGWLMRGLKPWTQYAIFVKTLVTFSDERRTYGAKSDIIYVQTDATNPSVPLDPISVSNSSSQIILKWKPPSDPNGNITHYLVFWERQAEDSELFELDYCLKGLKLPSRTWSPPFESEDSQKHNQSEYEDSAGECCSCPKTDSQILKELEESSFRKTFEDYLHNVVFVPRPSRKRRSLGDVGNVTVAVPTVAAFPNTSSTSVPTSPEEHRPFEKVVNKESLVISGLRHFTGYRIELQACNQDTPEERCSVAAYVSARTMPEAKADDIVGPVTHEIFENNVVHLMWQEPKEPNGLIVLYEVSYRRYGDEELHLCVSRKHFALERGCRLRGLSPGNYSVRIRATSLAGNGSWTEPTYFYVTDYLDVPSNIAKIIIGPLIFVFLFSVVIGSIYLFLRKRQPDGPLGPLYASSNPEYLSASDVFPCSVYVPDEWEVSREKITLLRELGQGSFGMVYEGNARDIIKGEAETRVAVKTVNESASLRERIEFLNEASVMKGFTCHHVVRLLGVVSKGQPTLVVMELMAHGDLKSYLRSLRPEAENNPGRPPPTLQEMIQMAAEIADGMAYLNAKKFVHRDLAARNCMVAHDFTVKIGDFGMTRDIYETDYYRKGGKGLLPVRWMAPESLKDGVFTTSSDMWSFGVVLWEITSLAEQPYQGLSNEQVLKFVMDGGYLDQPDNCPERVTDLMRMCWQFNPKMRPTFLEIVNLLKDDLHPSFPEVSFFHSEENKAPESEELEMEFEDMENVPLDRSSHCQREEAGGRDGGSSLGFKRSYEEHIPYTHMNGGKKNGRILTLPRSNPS
T3 sequence (P06213 763-1382 partner limits assumed): as the sequence (P06213 763-1382 partner limits assumed) above
T1 sequence (P08069 31-736 limits assumed): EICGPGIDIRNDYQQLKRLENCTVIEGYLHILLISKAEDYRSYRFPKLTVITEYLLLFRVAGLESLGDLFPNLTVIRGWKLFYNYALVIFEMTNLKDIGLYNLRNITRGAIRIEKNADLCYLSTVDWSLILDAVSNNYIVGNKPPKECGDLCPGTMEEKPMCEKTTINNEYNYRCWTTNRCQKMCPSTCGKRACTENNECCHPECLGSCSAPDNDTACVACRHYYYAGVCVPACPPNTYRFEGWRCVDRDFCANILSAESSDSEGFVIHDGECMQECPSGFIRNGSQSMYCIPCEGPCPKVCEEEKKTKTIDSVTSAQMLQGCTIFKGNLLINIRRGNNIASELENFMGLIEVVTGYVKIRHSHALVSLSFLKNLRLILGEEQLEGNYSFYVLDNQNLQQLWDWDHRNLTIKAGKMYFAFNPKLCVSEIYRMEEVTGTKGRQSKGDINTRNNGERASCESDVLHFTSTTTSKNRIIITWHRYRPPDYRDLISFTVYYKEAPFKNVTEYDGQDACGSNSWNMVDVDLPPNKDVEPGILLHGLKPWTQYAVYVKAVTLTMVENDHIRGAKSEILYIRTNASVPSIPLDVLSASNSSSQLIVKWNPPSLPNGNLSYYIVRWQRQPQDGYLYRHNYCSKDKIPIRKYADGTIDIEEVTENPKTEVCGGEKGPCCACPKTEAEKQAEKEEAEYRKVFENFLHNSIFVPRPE
T1 sequence (P08069 741-1367 partner limits assumed): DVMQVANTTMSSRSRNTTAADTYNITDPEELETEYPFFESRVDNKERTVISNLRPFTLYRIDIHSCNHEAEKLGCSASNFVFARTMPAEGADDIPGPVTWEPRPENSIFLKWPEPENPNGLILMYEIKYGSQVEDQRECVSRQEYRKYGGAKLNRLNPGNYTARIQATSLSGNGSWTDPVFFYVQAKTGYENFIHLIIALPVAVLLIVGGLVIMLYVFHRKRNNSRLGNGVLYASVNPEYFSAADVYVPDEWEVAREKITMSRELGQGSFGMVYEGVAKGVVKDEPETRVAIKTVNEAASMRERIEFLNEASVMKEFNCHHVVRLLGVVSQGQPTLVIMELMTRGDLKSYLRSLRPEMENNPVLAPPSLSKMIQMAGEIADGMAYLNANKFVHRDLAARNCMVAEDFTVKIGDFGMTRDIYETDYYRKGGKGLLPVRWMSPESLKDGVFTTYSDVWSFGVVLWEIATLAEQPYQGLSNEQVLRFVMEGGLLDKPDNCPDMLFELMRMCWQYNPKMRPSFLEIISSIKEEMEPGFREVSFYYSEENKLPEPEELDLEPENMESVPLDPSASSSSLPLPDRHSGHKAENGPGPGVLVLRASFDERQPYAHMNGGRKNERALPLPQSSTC

In data set [1], “(A14E, A21G, A22(GQEP)11, A66G, A67Q, A68E, A69K^, A70P, B16H, B25H, B29R, desB30 human insulin)/(226A, 227G, 228P, 234A, 235K, 297E, 315Q, 384Q, des447 hIgG4-Fc(226-447))3,5-bis[(2-acetyl)amino]benzoyl Conjugate [Example 5.2]” registered a Δ purity of 6.7%. For the same substance, the “Δ HMWP %” value in data set [2] is recorded as −0.63%. For the same substance, the “AOCBG normal rat” value in data set [3] is 364 mM·h. In addition, the “IGF1R mem Rel. aff. (%)” value in data set [4] is 0.10%. The “AOCBG STZ rat” value in data set [5] was determined as 4106 mM·h. The “hIR-B mem Rel. aff. (%)” value in data set [6] came out at 1.26%. In addition, the “PK normal rat [T1/2, s.c. (h)]” value in data set [7] worked out at 38 h. For the same substance, the “hIR-A mem Rel. aff. (%)” value in data set [8] is 1.27%.
Substance “(A14E, A21G, A22(GQEP)12, A70K^, A71P, B25H, B29R, desB30 human insulin)/(226A, 227G, 228P, 234A, 235K, 297E, 315Q, 384Q, des447 hIgG4-Fc(226-447))3,5-bis[(2-acetyl)amino]benzoyl Conjugate [Example 5.1]” had a Δ purity in data set [1] of 3.3%. For the same substance, the “Δ HMWP %” value in data set [2] is given as −2.17%. The “AOCBG normal rat” value in data set [3] came to 251 mM·h. Besides, the “IGF1R mem Rel. aff. (%)” value in data set [4] was 0.91%. Also, in data set [5], the “AOCBG STZ rat” value was 3181 mM·h. In addition, the “hIR-B mem Rel. aff. (%)” value in data set [6] is on record as 3.05%. Further, the “PK normal rat [T1/2, s.c. (h)]” value in data set [7] is listed as 20 h. Moreover, the “hIR-A mem Rel. aff. (%)” value in data set [8] stood at 2.97%.
